The values that follow come from patent US11744824B2, “2-amino-3-carbonyl imidazopyridine and pyrazolopyridine compounds” (1ST Biotherapeutics, Inc., priority 2020, dated 2023).

Some results are limits rather than exact numbers.

Experiment [1] deals with GST-tagged recombinant human RIP2 (Homo sapiens (Human), UniProt O43353). Kind of experiment: RIP2 Kinase Assay (ADP-Glo). The note with it: in vitro kinase activity, ATP 25 μM. Format: biochemical. Background: In ADP-Glo the light output rises with the ADP produced.
Experiment [2] concerns the target His-tagged recombinant human ABL1 (Homo sapiens (Human), UniProt P00519). Kind of experiment: c-Abl Kinase Assay (ADP-Glo). Format: biochemical. The note with it: in vitro kinase activity, ATP 25 μM. The method, then: ADP-Glo assay kit was purchased from Promega. Magnesium chloride (MgCl2), bovine serum albumin (BSA), ethylene glycol-bis(β-aminoethyl ether)-N,N,N′,N′-tetraacetic acid (EGTA), tween-20, 1,4-dithiothreitol (DTT) and dimethyl sulfoxide (DMSO) were purchased from Sigma-Aldrich. HEPES buffer was purchased from Gibco. ABL1 kinase and Abltide were purchased from Signalchem.
c-Abl kinase activity was measured by Promega's ADP-Glo™ Assay. In this assay, His-tagged recombinant human ABL1 (0.25 ng/μl) is incubated with 5 μL of compounds (0.5% DMSO), 5 μL of Abltide (0.01 μg/μl) and 5 μL of ATP (25 μM) in buffer (50 mM HEPES, 7.5; 10 mM MgCl2; 1 mM EGTA; 0.05% BSA; 0.01% Tween-20; 2 mM DTT). The assay was started by incubating the reaction mixture in a 96-well plate at 30° C. for 30 min. After the incubation, 25 μL ADP-Glo reagent was added and the reaction was incubated at room temperature for 40-min to stop the reaction and degrade residual ATP. The ADP product was then converted to ATP by adding 50 μL per well of detection reagent. Luminescence was detected after 30-min room temperature incubation with the Molecular device I3X plate reader. The IC50 values were calculated from a series of percent inhibition values determined at a range of inhibitor concentration using software routines as implemented in the GraphPad Prism 7 software and Sigma Plot 13.0.

For experiment [3], the system named is IL-6 secretion in BV-2 mouse microglia cells. Kind of experiment: IL-6 Secretion in BV-2 Cell (L18-MDP stimulated, ELISA). As to conditions: BV-2 cells, 10 μg/ml L18-MDP, 24 hr. The experiment is classed as cell-based. The method, then: IL-6 Secretion in BV-2 Cell
BV-2 mouse microglia cells were kindly provided from Dr. Bae in Korea Institute of Science and Technology (KIST). BV-2 cells were thawed and suspended in Dulbecco's modified eagle medium (DMEM) supplemented with 10% fetal bovine serum (FBS) and 1% Penicillin/Streptomycin. Cells were seeded into 96 well plates at 2×10^4 cells/well and allowed to attach for 24 hr. On the day of the experiment, various concentration of FB compounds was treated, and cells were stimulated with 10 μg/ml L18-MDP. After 24 hr incubation, supernatant was collected for cytokine assay.
Absorbance at 450 nm was measured using SpectraMax i3X microplate reader (Molecular Device). Values of media-only wells were subtracted and % inhibition for each compound concentration relative to the DMSO/L18-MDP-treated controls (100%) was calculated. The IC50 values were calculated from a series of percent activity values using software as implemented in the GraphPad Prism 7 software and SigmaPlot 13.0.

Sequence of GST-tagged recombinant human RIP2 (O43353 whole entry): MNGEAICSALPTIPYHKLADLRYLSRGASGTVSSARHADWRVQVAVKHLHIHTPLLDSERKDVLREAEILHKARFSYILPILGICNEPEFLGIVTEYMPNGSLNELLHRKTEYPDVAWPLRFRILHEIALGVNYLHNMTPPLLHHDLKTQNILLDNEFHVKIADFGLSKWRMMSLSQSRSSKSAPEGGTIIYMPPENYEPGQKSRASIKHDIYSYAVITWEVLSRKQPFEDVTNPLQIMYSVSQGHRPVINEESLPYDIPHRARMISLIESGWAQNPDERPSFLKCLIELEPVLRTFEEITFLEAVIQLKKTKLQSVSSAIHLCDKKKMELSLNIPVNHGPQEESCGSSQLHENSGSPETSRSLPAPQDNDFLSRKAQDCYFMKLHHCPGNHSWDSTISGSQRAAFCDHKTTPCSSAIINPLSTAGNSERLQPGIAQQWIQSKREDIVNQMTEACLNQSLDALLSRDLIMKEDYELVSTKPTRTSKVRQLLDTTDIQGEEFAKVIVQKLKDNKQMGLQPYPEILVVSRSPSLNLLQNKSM
Sequence of His-tagged recombinant human ABL1 (P00519 whole entry): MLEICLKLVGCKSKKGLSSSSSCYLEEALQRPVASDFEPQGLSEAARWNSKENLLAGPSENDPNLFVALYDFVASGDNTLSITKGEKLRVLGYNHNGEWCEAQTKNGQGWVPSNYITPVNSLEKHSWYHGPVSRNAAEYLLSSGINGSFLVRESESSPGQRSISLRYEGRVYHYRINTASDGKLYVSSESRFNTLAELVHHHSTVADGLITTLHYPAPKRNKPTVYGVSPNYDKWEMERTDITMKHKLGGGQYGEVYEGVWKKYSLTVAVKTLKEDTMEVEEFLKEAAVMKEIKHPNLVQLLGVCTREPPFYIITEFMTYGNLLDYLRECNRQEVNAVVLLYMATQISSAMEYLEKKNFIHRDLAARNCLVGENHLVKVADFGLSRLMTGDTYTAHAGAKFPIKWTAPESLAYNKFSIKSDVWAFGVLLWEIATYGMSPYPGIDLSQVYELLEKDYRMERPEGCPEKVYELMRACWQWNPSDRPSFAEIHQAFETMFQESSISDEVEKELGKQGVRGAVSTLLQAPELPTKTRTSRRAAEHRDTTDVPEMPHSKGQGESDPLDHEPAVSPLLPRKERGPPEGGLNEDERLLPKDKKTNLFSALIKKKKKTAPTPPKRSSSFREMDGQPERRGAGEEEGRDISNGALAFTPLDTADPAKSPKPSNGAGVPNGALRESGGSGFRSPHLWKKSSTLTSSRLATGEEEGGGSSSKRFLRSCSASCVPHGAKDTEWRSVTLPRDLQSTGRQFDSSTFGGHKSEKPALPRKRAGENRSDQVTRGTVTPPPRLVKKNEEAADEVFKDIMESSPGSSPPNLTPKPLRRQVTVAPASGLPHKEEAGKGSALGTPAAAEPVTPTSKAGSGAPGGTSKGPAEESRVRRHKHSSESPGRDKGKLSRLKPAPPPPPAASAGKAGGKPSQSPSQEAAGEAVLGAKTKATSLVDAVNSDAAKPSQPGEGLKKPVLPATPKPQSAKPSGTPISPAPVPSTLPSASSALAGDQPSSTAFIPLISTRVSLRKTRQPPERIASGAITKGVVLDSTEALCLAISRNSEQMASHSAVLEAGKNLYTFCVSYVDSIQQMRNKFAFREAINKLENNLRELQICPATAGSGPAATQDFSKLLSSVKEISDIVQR

For the molecule `Cc1c(F)cccc1-c1ccc2nc(N)c(C(=O)[C@@H]3C[C@@H]3F)n2c1` [Example 5], the IC50 in experiment [1] fell in the range of 1 to 100 nM; in experiment [2] it was 1 to 100 nM; in experiment [3], 501 to 1000 nM.

For the molecule `Cc1c(-c2ccc3nc(N)c(C(=O)[C@@H]4C[C@@H]4F)n3c2)cnc2[nH]ccc12` [Example 40], the results for the IC50 in experiment [1], in experiment [2] and in experiment [3] were 1 to 100 nM, 1 to 100 nM and 101 to 500 nM, respectively.

For `Nc1nc2ccc(-c3ccc4[nH]ccc4c3)cn2c1C(=O)[C@@H]1C[C@@H]1F` [Example 51], the results for the IC50 in experiment [1], in experiment [2] and in experiment [3] were 1 to 100 nM, 1 to 100 nM and 101 to 500 nM, respectively.

Turning to `Nc1nc2ccc(-c3cccc4[nH]ccc34)cn2c1C(=O)[C@@H]1C[C@@H]1F` [Example 57], the IC50 lay within 1 to 100 nM in experiment [1], 1 to 100 nM in experiment [2] and 101 to 500 nM in experiment [3].

As for `Cc1c(F)cc2[nH]ncc2c1-c1ccc2nc(N)c(C(=O)[C@@H]3C[C@@H]3F)n2c1` [Example 60], the IC50 was 1 to 100 nM in experiment [1], 101 to 500 nM in experiment [2] and 1 to 100 nM in experiment [3].

As to `Cc1c(-c2ccc3nc(N)c(C(=O)[C@@H]4C[C@@H]4F)n3c2)ccc2[nH]ccc12` [Example 89, (2-amino-6-(4-methyl-1H-indol-5-yl)imidazo[1,2-a]pyridin-3-yl)((1S,2S)-2-fluorocyclopropyl)methanone], the IC50 lay within 1 to 100 nM in experiment [1], 1 to 100 nM in experiment [2] and 101 to 500 nM in experiment [3].

With `Nc1nc2ccc(-c3ccnc4[nH]ccc34)cn2c1C(=O)[C@@H]1C[C@@H]1F` [Example 104], the IC50 was in the range of 1 to 100 nM in experiment [1], 1 to 100 nM in experiment [2] and 101 to 500 nM in experiment [3].

For `Nc1nc2ccc(-c3c[nH]c4ccccc34)cn2c1C(=O)[C@@H]1C[C@@H]1F` [Example 105], the IC50 was 1 to 100 nM in experiment [1], 1 to 100 nM in experiment [2] and 101 to 500 nM in experiment [3].

On to `Nc1nc2ccc(-c3c[nH]c4ncccc34)cn2c1C(=O)[C@@H]1C[C@@H]1F` [Example 110], for which the results for the IC50 in experiment [1] and in experiment [3] were 1 to 100 nM and 501 to 1000 nM, respectively.

With `Nc1nc2ccc(-c3cc(F)cc4[nH]ccc34)cn2c1C(=O)[C@@H]1C[C@@H]1F` [Example 113], the IC50 is 1 to 100 nM in experiment [1], 1 to 100 nM in experiment [2] and 101 to 500 nM in experiment [3].

Regarding `Cc1c(F)cc2[nH]ccc2c1-c1ccc2nc(N)c(C(=O)[C@@H]3C[C@@H]3F)n2c1` [Example 114], the values for the IC50 in experiment [1], in experiment [2] and in experiment [3] were 1 to 100 nM, 1 to 100 nM and 101 to 500 nM, respectively.

Take `Nc1nc2ccc(-c3ccnc4ccccc34)cn2c1C(=O)[C@@H]1C[C@@H]1F` [Example 115]: the figures for the half-inhibitory concentration (IC50) in experiment [1] and in experiment [3] were 1 to 100 nM and 101 to 500 nM, respectively.

Consider `Nc1nn2ccc(-c3cccc4[nH]ccc34)cc2c1C(=O)C1CC1` [Example 152], for which the IC50 lay within 1 to 100 nM in experiment [1] and 101 to 500 nM in experiment [3].

Take `Cc1c(F)cc2[nH]ncc2c1-c1ccn2nc(N)c(C(=O)C3CC3)c2c1` [Example 153, (2-amino-5-(6-fluoro-5-methyl-1H-indazol-4-yl)pyrazolo[1,5-a]pyridin-3-yl)(cyclopropyl)methanone]: the IC50 in experiment [1] lay in the range of 1 to 100 nM; in experiment [3], 501 to 1000 nM.

Take `Cc1c(F)cccc1-c1ccn2nc(N)c(C(=O)C3CC3)c2c1` [Example 154]: the results for the concentration for half-maximal inhibition (IC50) in experiment [1] and in experiment [3] were 1 to 100 nM and over 1000 nM, respectively.

As a reminder, the IC50 is the midpoint of a concentration-inhibition curve.
